Data reported in patent publication US20230147468A1, “RECOMBINANT PEPTIDE TO TREAT FIRE BLIGHT” (INNATE IMMUNITY LLC, priority 2020, published 2023).
No end group written: not given here.

What was measured:
[1] = tested on: Erwinia amylovora (ATCC 49946); experiment: Minimum inhibitory concentration, serial dilutions of peptide; assay type: cell-based; settings: for activity against Erwinia amylovora (MIC assay): Erwinia amylovora ATCC 49946, serial dilutions
apple reference gene = experiment: Detached leaf assay, Ct of apple reference gene; assay type: in vivo; settings: detached apple leaves treated with 28P-2
Excerpt: Water was used as a control.

Xanthomonas perforans = experiment: Minimum inhibitory concentration assay; assay type: cell-based; settings: causes spot in tomato
[2] = tested on: Xanthomonas euvesicatoria; experiment: Minimum inhibitory concentration assay; assay type: cell-based; settings: causes spot in tomato
Pseudomonas syringae = experiment: Minimum inhibitory concentration assay; assay type: cell-based; settings: causes speck in tomato
Ralstonia solanaeceum = assay type: cell-based; settings: causes bacterial wilt in tomato

## KEIVRRIEKFLRGPGRKRIVERIEKFLR [28P-8]
[1]
  activity against Erwinia amylovora (MIC assay): active

## KLIKLIKKILKKGPGRKLIKLIKKILKK [28P-4]
[1]
  activity against Erwinia amylovora (MIC assay): active

## KRIVQRIKDFLRGPGRKRIVQRIKDFLR [28P-2]
Apple reference gene
  level (Ct) of apple reference gene upon treatment: remained unchanged

## KVLSRVHAALKSIFDLGPGRKVLSRVHAALKSIFDL [36P]
[1]; 36P relative to 28P-2, FIG. 5
  toxicity to Erwinia amylovora by MIC, compared with 28P-2: significantly more toxic
[1]
  activity against Erwinia amylovora (MIC assay): significant activity
Xanthomonas perforans
  activity against Xanthomonas perforans: significant activity
[2]
  activity against Xanthomonas euvesicatoria: significant activity
Pseudomonas syringae
  activity against Pseudomonas syringae: significant activity
Ralstonia solanaeceum
  activity against Ralstonia solanaeceum: significant activity
